Measurements taken from patent US8524744B2, “Arylamine ketones, their preparation methods, the pharmaceutical composition containing them and their use” (Institute of Mataria Medica, Chinese Academy of Medical …, priority 2004, dated 2013).
Where a name gives a salt, the structure may show the parent alone.

Experiments:
[1] = system: polymorphonuclear leucocytes from rat pleural cavity; test: release of β-glucuronidase by polymorphonuclear leucocytes from rat pleural cavity in vitro (PAF as irritant); format: cell-based; conditions: for IC50: rat polymorphonuclear leucocytes
Protocol: 1% carrageenan was injected into the right pleural cavity of Wistar rat to induce polymorphonuclear leucocytes. The cells was suspended in Dulbecoo's buffer at the concentration of 2.5×10^6 cells·ml^1. The fluid containing the compound or solvent and 250 μl of cells suspension were added in test tube and incubated in 37° C. waterbath for 15 min. Then 2.5 μl of cytochalasin B (1×10^−3 mol·L^−1) was added and the reaction was continued for 5 min. Then 2.5 μl of PAF (1×10^−4 mol·L^−1) was added and for another 5 min. The test tubes were put into ice bath to stop the reaction. The supernatant was isolated and used as the β-glucuronidase release fluid. 25 μl of the enzyme fluid, 25 μl of phenolphthalein-glucuronic acid (2.5 mmol·L^−1) and 100 μl of acetic acid buffer (0.1 mol·L^−1) were added into each well of 96-well plate which was placed into incubater and kept at 37° C.3 for 18 hr. 150 μl of NaOH (0.3 mol·L^−1) was added in each well to cease the reaction and the optical density was read at 550 nm.

rat neutrophils = test: chemotaxis of rat neutrophils in vitro; format: cell-based; conditions: Neutrophil, 4 hr, read-out: IC50, inhibition of chemotaxis
Protocol: The blood was collected from rat common carotid artery and anticoagulated. The neutrophils was isolated by 5% glucose solution and lymphocyte separating medium. 27 μl of irritant was added into the well at low part of the chemotaxis plate. The filter membrane was covered on the wells and the top part of the plate was assembled on the filter. 50 μl of cells suspension with various concentrations of compound or solvent was added into the well at top part of the plate. The plate was incubated at 37° C. for 4 hr. The filter was taken out, stained by hematoxylin and dehydrated. The cells migrated into the other side of the filter was counted by microscope.

[2] = system: mouse ear edema induced by croton oil; test: mouse ear edema induced by croton oil; format: in vivo; conditions: orally, 50 mg·kg^−1, Kunming mice
Protocol: Kuming mice (male, 18-22 g) were randomly divided into two groups (treatment and control) with 10 animals for each group. The animals were orally administrated with compounds or solvent, respectively. 1 hr later, 50 μl of 2% croton oil was smeared on the two sides of mouse left ear. After 4 hr the mice were sacrificed by cervical vertebra displacement. The two ears were cut off and the central sections were excised using a punch with a diameter of 8 mm and weighed. Edema was quantified as the weight difference between the two sections.

[3] = system: mouse paw swelling induced by carrageenan; test: mouse paw swelling induced by carrageenan; format: in vivo; conditions: orally, 50 mg·kg^−1, Kunming mice
Protocol: Kunming mice (male, 18-22 g) were randomly divided into two groups (treatment and control) with 10 animals for each group. The animals were orally administrated with compounds or solvent, respectively. 1 hr later, 50 μl of 1% carrageenan was intracutaneously injected into the sole of right posterior foot. After 4 hr the animals were sacrificed by displacing cervical vertebra. The two paws were cut off at ankle joint and weighed. The swelling was evaluated by the difference of the weights of two paws.

[4] = system: cutaneous vascular permeability in mice induced by PAF; test: increase of cutaneous vascular permeability in mice induced by PAF; format: in vivo, mouse; conditions: orally, 50 mg·kg^−1, Kunming mice
Protocol: Kunming mice (male, 18-22 g) were randomly divided into two groups (treatment and control) with 10 animals for each group. The animals were orally administrated with the compounds or solvent, respectively. 1 hr later, 0.25 ml of 1% evans blue dye was injected into the tail vein. After 10 min, 0.1 ml of PAF (1×10^−8 mol·L^−1) was intracutaneously injected into the dorsal skin shaved. 1 hr later, the animals were sacrificed by cervical vertebra displacement. The skin with blue spot was cut off. The evans blue dye was extracted by 0.8 ml of mixed solution of acetone and normal saline (7:3). The supernatant was transferred into the 96-well plate. The optical density was measured at 620 nm.

[5] = system: patients with rheumatoid arthritis; conditions: after administration for 4 weeks; cited from earlier work
[6] = system: mouse with arthritis induced by type III collagen; conditions: cited from earlier work
NF-κB, TNF-α mRNA = conditions: infected mice; cited from earlier work
rat ear edema = conditions: induced by PAF or PMA; cited from earlier work
[7] = target: T1, PAF receptors of macrophages from mouse peritoneal cavity (Mus musculus, UniProt Q62035); test: competitive binding of [3H]-PAF to its receptors of macrophages from mouse peritoneal cavity; conditions: 4° C, 150 min, read-out: Ki, competition with [3H]-PAF binding
T1 construct: The cells in peritoneal cavity were collected after injection for 3-4 days; endogenous in cells; host or cells: adherent peritoneal macrophages of C57BL/6 mice (primary)
T1 sequence (Q62035 whole entry): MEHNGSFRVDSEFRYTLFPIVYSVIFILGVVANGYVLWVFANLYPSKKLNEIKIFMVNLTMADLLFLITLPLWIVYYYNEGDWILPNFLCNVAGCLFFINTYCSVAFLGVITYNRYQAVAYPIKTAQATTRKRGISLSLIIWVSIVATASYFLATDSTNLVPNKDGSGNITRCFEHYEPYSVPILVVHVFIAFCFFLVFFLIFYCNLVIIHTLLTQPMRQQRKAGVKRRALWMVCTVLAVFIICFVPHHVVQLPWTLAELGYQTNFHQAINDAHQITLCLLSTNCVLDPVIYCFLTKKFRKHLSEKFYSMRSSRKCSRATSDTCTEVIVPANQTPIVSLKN
Protocol: 4% of sodium mercaptoethanol was injected into C57BL/6 mouse peritoneal cavity to induce macrophages. The cells in peritoneal cavity were collected after injection for 3-4 days. 500 μl of suspension (5×10^5cells·ml^−1) was inoculated into 24-well culture plate which was placed into the incubator with 5% CO2 at 37° C for 2.5 hr. The non-adherent cells and serum in media were discarded. 490 μl of Tyrode-Hepes solution and 5 μl of [^3H]-PAF (final concentration: 2.8 nmol·L^−1) were added into each well. 5 μl of unlabeled PAF (5 μmol·L^1) was added into the well for the nonspecific binding. The series concentrations of compound were added into the well for the competitive binding and the corresponding volume of solvent was added into the wells for the total binding or the nonspecific binding. The reaction fluid was incubated at 4° C for 150 min and rinsed to wipe off the free labeled ligand. 300 μl of NaOH (0.3 mol·L^−1) was added to lyse the cells. The lysate fluid was transferred into a vial in which 7 ml of scintillation solution was added. The radioactivity strength was measured by scintillation counter.

[8] = system: macrophages from mouse peritoneal cavity; test: chemotaxis of macrophages from mouse peritoneal cavity induced by PAF; format: cell-based; conditions: Macrophage, 2 hr, read-out: IC50, inhibition of chemotaxis
Protocol: 4% of sodium mercaptoethanol was injected into C57BL/6 mouse peritoneal cavity to induce macrophages. The cells in peritoneal cavity were collected after injection for 3-4 days. 27 μl of irritant was added into the well at low part of the chemotaxis plate. The filter membrane was covered on the wells and the top part of the plate was assembled on the filter. 55 μl of cells suspension with various concentrations of the compounds or solvent was added into the well at top part of the plate. The plate was placed into incubater with 5% CO2 at 37° C. for 2 hr. The filter was taken out, stained by hematoxylin and dehydrated. The cells migrated into the other side of the filter was counted by microscope.

[9] = system: production of NO in macrophages from mouse peritoneal cavity; test: production of NO in macrophages from mouse peritoneal cavity (LPS and PAF); format: cell-based; conditions: Macrophage, 24 h, read-out: IC50, inhibition of the production of NO
Protocol: 4% of sodium mercaptoethanol was injected into C57BL/6 mouse peritoneal cavity to induce macrophages. The cells in peritoneal cavity were collected after injection for 3-4 days. 500 μl of cells were inoculated in the well of 24 wells plate which was placed in the CO2 incubator at 37° C. for 2.5 hr to make the cells adherent. The cells were rinsed by 1640 culture media. 495 μl of 1640 media containing irritant and 5 μl the compound or solvent were added into each well. The plate was incubated for 24 hr. The supernatant was taken out and mixed with the same volume of Griess agent. The reaction fluid was kept at room temperature for 10 min and the optical density was measured at 550 nm. The numbers read was transferred into the content of NO.

[10] = system: production of TNF-α by macrophages from mouse peritoneal cavity; test: production of TNF-α by macrophages from mouse peritoneal cavity (LPS, L929 bioassay); format: cell-based; conditions: Macrophage, 24 h, read-out: IC50, inhibition of the production of TNF-α
Protocol: The macrophages from mouse peritoneal cavity were prepared as described before. 500 μl of cells were inoculated in 48-well plate which was incubated with 5% CO2 at 37° C. for 2.5 hr. The compounds and LPS (final concentration: 10 μg·ml^−1) were added into each well of the plate. After incubating for 24 hr the supernatant was collected. The content of TNF-α was determined by following method. 100 μl of L929 cells (2×10^5cells·ml^−1) with 100 μl of RPMI-1640 or supernatant collected above were inoculated into 96-well plate which incubated under 5% CO2 at 37° C. for 20 hr. The supernatant was discarded. 200 μl of 0.5% crystal violet was added into each well. 10 min later crystal violet outside of the cells was rinsed using normal saline. The cells were dried under room temperature. 100 μl of 10% SDS was added into each well. After the cells were lysed completely the optical density was measured at 570 nm. The well of 1640 media was as the control, The content of TNF-a was evaluated by the percentage of L929 cells survival.

[11] = system: new vessels in mouse angiogenesis model; conditions: mouse angiogenesis model induced by synovial fluid of patient with rheumatoid arthritis; cited from earlier work
[12] = system: TNF-α level in synovial fluid of rat ankle joint; conditions: induced by immune complex; cited from earlier work
rat paw swelling = conditions: induced by PAF, carrageenan, histamine, 5-serotonin; cited from earlier work
[13] = Dose 1 × 10^−5 mol · L^−1, Irritant 2 × 10^−7 mol · L^−1

In the case of `COc1ccc(C=CC(=O)CCN2CCC(Cc3ccccc3)CC2)cc1` [Compound 22a, 5-[(4-Benzyl)piperidyl]-1-(4-methoxyphenyl)-1-penten-3-one hydrochloride], the “Inhibition (%) of β-glucuronidase release” value ([1]; Dose 1 × 10^−5 mol · L^−1, Irritant 1 × 10^−6 mol · L^−1) is reported as 73.17%, the IC50 ([1]; Leucocyte) is reported as 562 nM and the IC50 (rat neutrophils) is reported as 4.05 nM. The “Inhibition (%) of mouse ear edema” value [2] was 31.22%, the “Inhibition (%) of mouse paw swelling” value [3] was 23.33% and the “Inhibition (%) of increase of cutaneous vascular permeability” value [4] was 51.14%.

For `COc1ccc(NC(=S)N2CCc3c(sc4c3C(c3ccccc3Cl)=NCc3nnc(C)n3-4)C2)cc1` [BN50730], the “symptom of patients with rheumatoid arthritis” value [5] is given as “significantly improves”, the “consumption of proteoglycan in cartilage” value [6] is given as “decrease” and the joint swelling [6] is given as “significantly inhibit”. The “precipitation of fibronectin in cartilage” value [6] was “decrease”, the “early activity of NF-κB” value (NF-κB, TNF-α mRNA) was “reduce” and the “expression of TNF-α mRNA” value (NF-κB, TNF-α mRNA) was “reduce”.

For `CCOC(=O)C1CCCN(CCC(=O)C=Cc2ccc(Cl)cc2Cl)C1.Cl` (centres unmarked) [Compound 16, 5-[(3-Ethoxycarbonyl)piperidyl]-1-(2,4-dichlorophenyl)-1-penten-3-one hydrochloride], the “Inhibition (%) of β-glucuronidase release” value ([1]; Dose 2 × 10^−6 mol · L^−1, Irritant 1 × 10^−7 mol · L^−1) was 84.38%, the IC50 [1] was 22.4 nM and the “Inhibition (%) of mouse ear edema” value [2] was 29.05%. For the same molecule, the “Inhibition (%) of increase of cutaneous vascular permeability” value [4] was 48.09%.

`COc1ccc(C=CC(=O)CCN2CCC(Cc3ccccc3)CC2)cc1` (as salt: hydrochloride) [Compound 22a, 5-[(4-Benzyl)piperidyl]-1-(4-methoxyphenyl)-1-penten-3-one hydrochloride] showed a melting point of 180 to 184 °C.

In the case of `CN(C)C(=O)n1cc(C(=O)c2ccn3c2CS[C@@H]3c2cccnc2)c2ccc(-c3ccc(F)cc3)cc21` [Compound A-85783], the rat ear edema (rat ear edema) is given as “significantly inhibit”.

In the case of `COc1ccc(C=CC(=O)CCN2CC(C)OC(C)C2)cc1O` (centres unmarked) [Compound 36, 5-(2,6-Dimethylmorpholinyl)-1-(3-hydroxy-4-methoxyphenyl)-1-penten-3-one hydrochloride], the “Inhibition (%) of β-glucuronidase release” value [1, 13] is reported as 129.72%, the IC50 ([1]; Leucocyte) is reported as 0.555 nM and the Ki [7] is reported as 48100 nM. For the same molecule, the IC50 [8] was 44.8 nM, the IC50 [9] was 3230 nM and the IC50 [10] was 45.8 nM. The “Inhibition (%) of mouse paw swelling” value [3] was 28.00% and the “Inhibition (%) of increase of cutaneous vascular permeability” value [4] was 33.50%.

Molecule `O=C(C=Cc1ccc(C(F)(F)F)cc1)CCN1CCC(Cc2ccccc2)CC1` (as salt: hydrochloride) [Compound 20, 5-[(4-Benzyl)piperidyl]-1-(4-trifluoromethylphenyl)-1-penten-3-one hydrochloride] has a melting point of 175 to 179 °C.

In the case of `CCOc1cc(C=CC(=O)CCN2CC(C)OC(C)C2)ccc1O` (centres unmarked) [Compound 37, 5-(2,6-Dimethylmorpholinyl)-1-(3-ethoxy-4-hydroxyphenyl)-1-penten-3-one hydrochloride], the “Inhibition (%) of β-glucuronidase release” value [1, 13] is reported as 79.24%, the IC50 ([1]; Leucocyte) is reported as 1.23 nM and the Ki [7] is reported as 68300 nM. It also gave an IC50 [8] of 83.2 nM, an IC50 [9] of 3690 nM and an IC50 [10] of 2 nM. For the same molecule, the “Inhibition (%) of mouse ear edema” value [2] was 33.20%, the “Inhibition (%) of mouse paw swelling” value [3] was 21.60% and the “Inhibition (%) of increase of cutaneous vascular permeability” value [4] was 38.70%.

For `COc1ccc(C=CC(=O)CCN2CC(C)OC(C)C2)cc1O` (centres unmarked) (as salt: hydrochloride) [Compound 36, 5-(2,6-Dimethylmorpholinyl)-1-(3-hydroxy-4-methoxyphenyl)-1-penten-3-one hydrochloride], the melting point was 194 to 196 °C.

For `Cc1nnc2n1-c1sc3c(c1C(c1ccccc1Cl)=NC2)CC(C(=O)N1CCOCC1)C3` (centres unmarked) [WEB2170], the “increase of new vessels” value [11] is listed as “inhibit” and the “increase of TNF-α level in synovial fluid” value [12] is listed as “inhibit”.

`CCOc1cc(C=CC(=O)CCN2CC(C)OC(C)C2)ccc1O` (centres unmarked) (as salt: hydrochloride) [Compound 37, 5-(2,6-Dimethylmorpholinyl)-1-(3-ethoxy-4-hydroxyphenyl)-1-penten-3-one hydrochloride] gave a melting point of 198 to 201 °C.

For `CCCCCCCCCCCCCCCCCCNC(=O)OCC(COC(=O)N(Cc1cccc[n+]1CC)C(C)=O)OC` (centres unmarked) [CV-6209], the rat paw swelling (rat paw swelling) is listed as “inhibit”.
